Measurements as given in the Kinase Knowledgebase extract (Sharma et al. 2016).
Values joined by “and” are separate entries in the source; they are usually repeats but may differ in a detail not shown here. Identical values can stand only once.

These compounds were tested against PIK3CG (human) (UniProt P48736) (assay: Inhibition of PIK3CG Kinase Activity).
Chain of PIK3CG (human) (P48736 whole entry, looked up): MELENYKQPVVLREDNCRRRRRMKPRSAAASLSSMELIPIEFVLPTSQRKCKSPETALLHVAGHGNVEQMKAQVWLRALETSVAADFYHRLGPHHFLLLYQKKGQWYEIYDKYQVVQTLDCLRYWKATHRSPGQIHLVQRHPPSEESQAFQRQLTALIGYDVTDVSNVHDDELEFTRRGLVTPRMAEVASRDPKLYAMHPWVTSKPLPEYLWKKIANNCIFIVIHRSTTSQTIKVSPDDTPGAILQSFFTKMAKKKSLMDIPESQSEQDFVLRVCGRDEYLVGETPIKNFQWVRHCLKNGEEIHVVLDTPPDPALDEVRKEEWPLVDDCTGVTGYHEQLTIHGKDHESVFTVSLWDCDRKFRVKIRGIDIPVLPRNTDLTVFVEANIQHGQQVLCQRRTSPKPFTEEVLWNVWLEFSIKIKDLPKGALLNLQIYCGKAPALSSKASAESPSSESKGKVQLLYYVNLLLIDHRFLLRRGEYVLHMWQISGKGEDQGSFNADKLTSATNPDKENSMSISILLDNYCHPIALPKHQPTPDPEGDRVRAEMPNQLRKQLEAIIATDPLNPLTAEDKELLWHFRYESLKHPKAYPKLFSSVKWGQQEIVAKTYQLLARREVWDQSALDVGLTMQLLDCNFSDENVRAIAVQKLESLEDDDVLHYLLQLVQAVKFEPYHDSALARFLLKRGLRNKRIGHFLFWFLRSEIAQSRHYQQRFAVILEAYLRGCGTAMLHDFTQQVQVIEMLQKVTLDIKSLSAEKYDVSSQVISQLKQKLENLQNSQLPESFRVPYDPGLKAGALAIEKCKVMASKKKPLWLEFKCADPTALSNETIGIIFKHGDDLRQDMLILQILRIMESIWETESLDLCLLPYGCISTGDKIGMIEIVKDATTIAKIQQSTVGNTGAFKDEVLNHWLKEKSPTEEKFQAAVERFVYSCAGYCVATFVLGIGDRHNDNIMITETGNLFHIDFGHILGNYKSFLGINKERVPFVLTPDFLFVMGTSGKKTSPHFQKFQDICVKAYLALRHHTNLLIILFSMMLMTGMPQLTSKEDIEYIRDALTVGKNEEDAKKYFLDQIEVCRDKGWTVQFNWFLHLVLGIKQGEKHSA
`COc1ncc(-c2cc(C)c3c(n2)CN(c2cnn(CC#N)c2)C3=O)c(OC)n1` was tested, and the Ki was less than 100 nM. Work on `Cc1cc(-c2cncc(C(=O)N(C)C(C)C)c2)nc2c1C(=O)N(c1cnn(CC(F)(F)F)c1)C2(C)C` yielded a Ki of less than 100 nM. For `COc1cncc(-c2cc(C)c3c(n2)[C@@]2(CCOC2)N(c2cnn(CC(F)(F)F)c2)C3=O)c1`, the Ki was less than 100 nM. In the case of `C#CCNC(=O)c1cncc(-c2cc(C)c3c(n2)C(C)N(c2cnn(CC(F)(F)F)c2)C3=O)c1` (stereo not drawn), the Ki is reported as less than 100 nM. `COCc1cccc(-c2cc(C)c3c(n2)CN(c2cnn(C(C)(C)C#N)c2)C3=O)c1` showed a Ki of 100 to 490 nM. `COc1cc(-c2ccc3c(n2)CN(c2ccsc2)C3=O)cnc1OC` was tested, and the Ki was less than 100 nM. In the case of `CCOc1cncc(-c2cc(C)c3c(n2)C(C)(OC)N(c2cnn(CC(F)(F)F)c2)C3=O)c1` (stereo not drawn), the Ki is reported as less than 100 nM. `Cc1cc(-c2cncc(N)c2)nc2c1C(=O)N(c1cnn(CC(F)(F)F)c1)C2` showed a Ki of 100 to 490 nM. In the case of `COc1cc(-c2ccc3c(n2)CN(c2cnn([C@H](CO)C(F)(F)F)c2)C3=O)cnc1OC`, the Ki is reported as less than 100 nM. In the case of `COc1cc(-c2cc(C)c3c(n2)CN(c2cncc(OC(F)F)c2)C3=O)cnc1OC`, the Ki is reported as less than 100 nM. Compound `CCc1cc(-c2cnc(OC)c(OC)c2)nc2c1C(=O)N(c1cnn(CC(F)(F)F)c1)C2` has a Ki of less than 100 nM. With `COc1cc(-c2cc(C)c3c(c2)CN(c2cnn([C@@H](CO)C(F)(F)F)c2)C3=O)cnc1OC` the Ki was less than 100 nM. In the case of `CCNS(=O)(=O)c1cc(-c2cc(C)c3c(n2)C(C)(C)N(c2cnn(CC(F)(F)F)c2)C3=O)cnc1OC`, the Ki is reported as less than 100 nM. In the case of `CCn1cc(N2Cc3nc(-c4cnc(OC)c(OC)c4)ccc3C2=O)ccc1=O`, the Ki is reported as less than 100 nM. With `COc1cncc(-c2cc(C)c3c(n2)C(C)(OC)N(c2cnn(CC(F)(F)F)c2)C3=O)c1` (stereo not drawn) the Ki was less than 100 nM. With `Cc1cc(-c2cncc(OCC(F)F)c2)nc2c1C(=O)N(c1cnn(CC(F)F)c1)C2C` (stereo not drawn) the Ki was less than 100 nM. `COc1cncc(-c2cc(C)c3c(n2)[C@H](C)N(c2ccn(C)n2)C3=O)c1` was tested, and the Ki was less than 100 nM. With `COc1cc(-c2ccc3c(n2)CN(c2ccc(CN4CCOCC4)nc2)C3=O)cnc1OC` the Ki was 100 to 490 nM. `COc1cc(-c2ccc3c(n2)CN(c2cn(CC(F)(F)F)cn2)C3=O)cnc1OC` gave a Ki of less than 100 nM. Compound `COc1ccc(-c2cc(C)c3c(n2)CN(c2cnn(CC(F)(F)F)c2)C3=O)c(OC)c1` has a Ki of 100 to 490 nM. `COc1cc(-c2ccc3c(n2)CN(c2cnn(C(F)(F)C(N)=O)c2)C3=O)cnc1OC` gave a Ki of less than 100 nM. Work on `O=C1c2ccc(-c3cncc(OC(F)F)c3)nc2CN1c1cc[nH]n1` yielded a Ki of 100 to 490 nM. `CCn1cc(N2Cc3nc(-c4cncc(OC(F)F)c4)cc(C)c3C2=O)cn1` showed a Ki of less than 100 nM. Compound `COc1ncc(-c2cc(C)c3c(n2)C(C)(C)N(c2cnn(CC(F)(F)F)c2)C3=O)cc1C(=O)NC(C)(C)C` has a Ki of less than 100 nM. In the case of `CCn1ccc(N2C(=O)c3c(C)cc(-c4cncc(OCC(F)F)c4)nc3[C@@H]2C)n1`, the Ki is reported as 100 to 490 nM. In the case of `COc1cc(-c2ccc3c(n2)CN(c2ccc(N4CCC(OC)CC4)nc2)C3=O)cnc1OC`, the Ki is reported as less than 100 nM. Compound `Cc1cc(-c2cncc(OCC(F)F)c2)nc2c1C(=O)N(c1cnn(CC(F)F)c1)C2(C)C` has a Ki of less than 100 nM. Compound `CCC1c2nc(-c3cnc(OC)c(OC)c3)ccc2C(=O)N1c1cc(COC)n(CC)n1` (stereo not drawn) has a Ki of 100 to 490 nM. Work on `CCn1cc(N2Cc3nc(-c4ccc(OC)c(OC)c4)cc(C)c3C2=O)cn1` yielded a Ki of less than 100 nM. `Cc1cc(-c2cncc([S+](C)[O-])c2)nc2c1C(=O)N(c1cnn(CC(F)(F)F)c1)C2(C)C` (stereo not drawn) was tested, and the Ki was 100 to 490 nM and < 100 nM. In the case of `COc1cc(OC)cc(-c2cc(C)c3c(n2)CN(c2cnn(C(C)(C)C#N)c2)C3=O)c1`, the Ki is reported as less than 100 nM. `COc1cncc(-c2cc(C)c3c(n2)[C@@H](C)N(c2cn[nH]c2)C3=O)c1` gave a Ki of less than 100 nM. Compound `CCOc1cc(-c2cc(C)c3c(c2)C(C)N(c2cnn(CC(F)(F)F)c2)C3=O)cnc1OCC` (stereo not drawn) has a Ki of less than 100 nM. `CCO[C@H]1c2nc(-c3cnc(OC)c(OC)c3)cc(C)c2C(=O)N1c1cnn(CC(F)(F)F)c1` showed a Ki of less than 100 nM. `COc1cncc(-c2cc(C)c3c(n2)[C@H](OC)N(c2cnn(CC(F)(F)F)c2)C3=O)c1` showed a Ki of less than 100 nM. With `CCOc1ncc(-c2cc(C)c3c(n2)C(C)(O)N(c2cnn(CC(F)(F)F)c2)C3=O)cc1OC` (stereo not drawn) the Ki was less than 100 nM. For `COc1cc(-c2cc(C3CC3)c3c(n2)CN(c2cnn(CC(F)(F)F)c2)C3=O)cnc1OC`, the Ki was less than 100 nM. In the case of `COc1cc(-c2cc(C)c3c(n2)[C@](C)(O)N(c2cnn(CC(F)(F)F)c2)C3=O)cnc1OC`, the Ki is reported as less than 100 nM. `Cc1cc(-c2cncc(C(=O)O)c2)nc2c1C(=O)N(c1cnn(CC(F)(F)F)c1)C2` was tested, and the Ki was less than 100 nM. With `COc1cc(-c2ccc3c(n2)[C@H](C)N(c2cnn(CC#N)c2)C3=O)cnc1OC` the Ki was less than 100 nM. `Cc1cc(-c2cncc(S(C)(=O)=O)c2)nc2c1C(=O)N(c1cnn(CC(F)(F)F)c1)C2C` (stereo not drawn) showed a Ki of less than 100 nM. With `COc1cc(-c2ccc3c(n2)CN(c2ccon2)C3=O)cnc1OC` the Ki was less than 100 nM. Compound `COc1cc(-c2ccc3c(n2)CN(c2ccc(N4CCC(F)CC4)nc2)C3=O)cnc1OC` has a Ki of less than 100 nM. `COc1ncc(-c2cc(C)c3c(n2)CN(c2cnn(CC(F)(F)F)c2)C3=O)cc1OCC(F)F` showed a Ki of less than 100 nM. With `CCOc1cc(-c2cc(C)c3c(n2)C(C)(C)N(c2cnn(CC(F)F)c2)C3=O)cnc1C` the Ki was less than 100 nM. `CCn1cc(N2Cc3nc(-c4cnc(OC)c(OC)c4)ccc3C2=O)cn1` showed a Ki of less than 100 nM. Work on `COc1ncc(-c2cc(C)c3c(n2)CN(c2ccn(C4COC4)n2)C3=O)cc1OCC1CC1` yielded a Ki of less than 100 nM. With `COc1ccc(-c2ccc3c(n2)CN(c2cnn(CC#N)c2)C3=O)c(C)n1` the Ki was 100 to 490 nM. `C=C1c2nc(-c3cnc(OC)c(OC)c3)ccc2C(=O)N1c1cnn(CC(F)(F)F)c1` gave a Ki of less than 100 nM. With `CCNC(=O)Cn1cc(N2Cc3nc(-c4cnc(OC)c(OC)c4)ccc3C2=O)cn1` the Ki was less than 100 nM. `COc1cc(-c2ccc3c(n2)CN(c2cnn(CC(O)CF)c2)C3=O)cnc1OC` (stereo not drawn) was tested, and the Ki was less than 100 nM. Work on `Cc1cc(-c2cnc(C)c(C(=O)O)c2)nc2c1C(=O)N(c1cnn(CC(F)(F)F)c1)C2(C)C` yielded a Ki of less than 100 nM. `COCCOc1ncc(-c2ccc3c(n2)CN(c2cnn(CC#N)c2)C3=O)cc1OC` was tested, and the Ki was less than 100 nM. In the case of `CCn1ccc(N2C(=O)c3c(C)cc(-c4cncc(OC(F)F)c4)nc3[C@@H]2C)n1`, the Ki is reported as less than 100 nM. Compound `CCOCCOc1cc(-c2cc(C)c3c(n2)CN(c2cnn(CC(F)(F)F)c2)C3=O)cnc1OC` has a Ki of less than 100 nM. In the case of `COc1cc(-c2cc(C)c3c(n2)C2(CCOCC2)N(c2cnn(CC(F)(F)F)c2)C3=O)cnc1OC(C)C`, the Ki is reported as less than 100 nM. For `COc1cc(-c2ccc3c(c2)CN(c2cn[nH]c2)C3=O)cnc1OC`, the Ki was less than 100 nM. Work on `COc1cc(-c2ccc3c(n2)[C@H](C)N(c2ccn(CC(F)(F)F)n2)C3=O)cnc1OC` yielded a Ki of less than 100 nM. `COc1cc(-c2ccc3c(n2)C(C)N(c2cnn(C(C)(C)C#N)c2)C3=O)cnc1OC` (stereo not drawn) gave a Ki of less than 100 nM. `Cc1cc(-c2cncc(C(=O)N3CCCC3)c2)nc2c1C(=O)N(c1cnn(CC(F)(F)F)c1)C2` showed a Ki of 100 to 490 nM. Compound `CCOc1cc(-c2cc(C)c3c(n2)C(OCCOC)N(c2cnn(CC(F)(F)F)c2)C3=O)cnc1OC` (stereo not drawn) has a Ki of less than 100 nM. `COc1cc(-c2ccc3c(n2)C(C)N(c2ccnc(C(C)C#N)c2)C3=O)cnc1OC` (stereo not drawn) showed a Ki of less than 100 nM. `COc1cc(-c2ccc3c(n2)[C@H](C)N(c2ccn(CC(C)(C)F)n2)C3=O)cnc1OC` gave a Ki of less than 100 nM. Work on `COc1cc(-c2ccc3c(c2)CN(c2cnn(CC#N)c2)C3=O)cnc1OC` yielded a Ki of less than 100 nM. Work on `COc1cc(-c2cc(C)c3c(c2)C(C)N(c2cnn(CC(F)(F)F)c2)C3=O)cnc1OC` (stereo not drawn) yielded a Ki of less than 100 nM. With `COc1cc(-c2ccc3c(n2)CN(c2ccc(N4CCOC(CO)C4)nc2)C3=O)cnc1OC` (stereo not drawn) the Ki was 100 to 490 nM. `COc1cc(-c2ccc3c(n2)CN(c2ccc(N4CC[C@@H](F)C4)nc2)C3=O)cnc1OC` showed a Ki of 100 to 490 nM. `COc1cc(-c2cc(C)c3c(n2)C(OC(C)=O)N(c2cnn(CC(F)(F)F)c2)C3=O)cnc1OC` (stereo not drawn) was tested, and the Ki was less than 100 nM.
